Experimental data from paper PMC5218480 (PLoS ONE, 2017).

Tested on: MV-4-11 cells
Experiment: Gene expression microarray analysis (Affymetrix PrimeView) and GSEA
Assay type: cell-based, human
Design: RFU PODN (11730768_x_at) / Fold change /veh PODN (11730768_x_at) / RFU LINC00158 (11744669_a_at) / Fold change /veh LINC00158 (11744669_a_at) / RFU DUSP10 (11751237_a_at) / Fold change /veh DUSP10 (11751237_a_at) / RFU ID3 (11757404_x_at) / Fold change /veh ID3 (11757404_x_at) / RFU PLEKHG5 (11737974_s_at) / Fold change /veh PLEKHG5 (11737974_s_at) / RFU LRRC4B (11730491_at) / Fold change /veh LRRC4B (11730491_at) / RFU GIMAP4 (11747438_a_at) / Fold change /veh GIMAP4 (11747438_a_at) / RFU KRT8 (11758183_x_at) / Fold change /veh KRT8 (11758183_x_at) / RFU CNN1 (11734310_a_at) / Fold change /veh CNN1 (11734310_a_at) / RFU VPS37D (11726825_at) / Fold change /veh VPS37D (11726825_at) / RFU C10orf10 (11716522_x_at) / Fold change /veh C10orf10 (11716522_x_at) / RFU KIR2DL2 /// KIR2DL4 /// KIR2DL5A /// KIR2DL5B /// KIR2DS1 /// KIR2DS2 /// KIR2DS3 /// KIR2DS4 /// KIR3DL3 /// KIR3DL3 /// KIR3DS1 (11738374_at) / Fold change /veh KIR2DL2 /// KIR2DL4 /// KIR2DL5A /// KIR2DL5B /// KIR2DS1 /// KIR2DS2 /// KIR2DS3 /// KIR2DS4 /// KIR3DL3 /// KIR3DL3 /// KIR3DS1 (11738374_at) / RFU C1QL1 (11718748_at) / Fold change /veh C1QL1 (11718748_at) / RFU TMPRSS4 (11747572_a_at) / Fold change /veh TMPRSS4 (11747572_a_at) / RFU HAMP (11756126_x_at) / Fold change /veh HAMP (11756126_x_at) / RFU RNFT2 (11725882_a_at) / Fold change /veh RNFT2 (11725882_a_at) / RFU NR4A2 (11747474_a_at) / Fold change /veh NR4A2 (11747474_a_at) / RFU ABCC12 (11746883_a_at) / Fold change /veh ABCC12 (11746883_a_at) / RFU TMEM136 (11760407_x_at) / Fold change /veh TMEM136 (11760407_x_at) / RFU CLDN22 /// WWC2 (11732394_at) / Fold change /veh CLDN22 /// WWC2 (11732394_at) / RFU HLA-DPB1 (11760878_x_at) / Fold change /veh HLA-DPB1 (11760878_x_at) / RFU SPINT1 (11716480_a_at) / Fold change /veh SPINT1 (11716480_a_at) / RFU GAP43 (11754022_s_at) / Fold change /veh GAP43 (11754022_s_at) / RFU A4GNT (11735810_at) / Fold change /veh A4GNT (11735810_at) / RFU PRB3 (11715151_x_at) / Fold change /veh PRB3 (11715151_x_at) / RFU TUBB4B (11761932_at) / Fold change /veh TUBB4B (11761932_at) / RFU CAPN14 (11732068_a_at) / Fold change /veh CAPN14 (11732068_a_at) / RFU TMCC2 (11721928_a_at) / Fold change /veh TMCC2 (11721928_a_at) / RFU IRGQ (11745062_a_at) / Fold change /veh IRGQ (11745062_a_at) / RFU FAM174B (11720279_a_at) / Fold change /veh FAM174B (11720279_a_at) / RFU TMPRSS4 (11748680_a_at) / Fold change /veh TMPRSS4 (11748680_a_at) / RFU FAM212B (11763350_a_at) / Fold change /veh FAM212B (11763350_a_at) / RFU PLEKHG5 (11743358_a_at) / Fold change /veh PLEKHG5 (11743358_a_at) / RFU ZSCAN30 (11745921_a_at) / Fold change /veh ZSCAN30 (11745921_a_at) / RFU CMKLR1 (11741424_a_at) / Fold change /veh CMKLR1 (11741424_a_at) / RFU LOC101060620 /// MAPK8IP1 (11723275_at) / Fold change /veh LOC101060620 /// MAPK8IP1 (11723275_at) / RFU SPTSSB (11747773_x_at) / Fold change /veh SPTSSB (11747773_x_at) / RFU PRSS12 (11739890_at) / Fold change /veh PRSS12 (11739890_at) / RFU BIN1 (11741810_x_at) / Fold change /veh BIN1 (11741810_x_at) / RFU WNT11 (11732464_a_at) / Fold change /veh WNT11 (11732464_a_at) / RFU C10orf10 (11716521_a_at) / Fold change /veh C10orf10 (11716521_a_at) / RFU C5orf56 (11738089_at) / Fold change /veh C5orf56 (11738089_at) / RFU CYB561 (11721691_x_at) / Fold change /veh CYB561 (11721691_x_at) / RFU ANKRD19P (11752326_a_at) / Fold change /veh ANKRD19P (11752326_a_at) / RFU OR2T12 /// OR2T33 /// OR2T8 (11738714_s_at) / Fold change /veh OR2T12 /// OR2T33 /// OR2T8 (11738714_s_at) / RFU VCAN (11748164_a_at) / Fold change /veh VCAN (11748164_a_at) / RFU JSRP1 (11732532_at) / Fold change /veh JSRP1 (11732532_at) / RFU KRTAP10-11 (11738290_x_at) / Fold change /veh KRTAP10-11 (11738290_x_at) / RFU MYO3A (11730013_a_at) / Fold change /veh MYO3A (11730013_a_at) / RFU EBF3 (11725865_a_at) / Fold change /veh EBF3 (11725865_a_at) / RFU CAMK2N1 (11719241_x_at) / Fold change /veh CAMK2N1 (11719241_x_at) / RFU C5orf56 (11738088_a_at) / Fold change /veh C5orf56 (11738088_a_at) / RFU OLFML3 (11715873_a_at) / Fold change /veh OLFML3 (11715873_a_at) / RFU LOC100653217 /// NTM (11731650_a_at) / Fold change /veh LOC100653217 /// NTM (11731650_a_at) / RFU MAPK11 (11762145_a_at) / Fold change /veh MAPK11 (11762145_a_at) / RFU FIZ1 (11724087_x_at) / Fold change /veh FIZ1 (11724087_x_at) / RFU OASL (11726364_x_at) / Fold change /veh OASL (11726364_x_at) / RFU SOX15 (11748057_x_at) / Fold change /veh SOX15 (11748057_x_at) / RFU CD79A (11719716_a_at) / Fold change /veh CD79A (11719716_a_at) / RFU HIST1H1D (11736915_at) / Fold change /veh HIST1H1D (11736915_at) / RFU CASKIN2 (11723855_a_at) / Fold change /veh CASKIN2 (11723855_a_at) / RFU LOC730098 (11760151_x_at) / Fold change /veh LOC730098 (11760151_x_at) / RFU OR4N2 (11742367_at) / Fold change /veh OR4N2 (11742367_at) / RFU PRRT2 (11749266_a_at) / Fold change /veh PRRT2 (11749266_a_at) / RFU SNX32 (11753110_a_at) / Fold change /veh SNX32 (11753110_a_at) / RFU CDHR5 (11726645_a_at) / Fold change /veh CDHR5 (11726645_a_at) / RFU RCAN1 (11760418_a_at) / Fold change /veh RCAN1 (11760418_a_at) / RFU FAM167A (11723789_a_at) / Fold change /veh FAM167A (11723789_a_at) / RFU FAM26E (11764081_at) / Fold change /veh FAM26E (11764081_at) / RFU ISYNA1 (11749810_s_at) / Fold change /veh ISYNA1 (11749810_s_at) / RFU ACY1 (11761880_at) / Fold change /veh ACY1 (11761880_at) / RFU 11764098_at / Fold change /veh 11764098_at / RFU SAMD14 (11745864_x_at) / Fold change /veh SAMD14 (11745864_x_at) / RFU NPB (11741838_a_at) / Fold change /veh NPB (11741838_a_at) / RFU TMPRSS6 (11731388_a_at) / Fold change /veh TMPRSS6 (11731388_a_at) / RFU KRTAP10-2 (11738614_at) / Fold change /veh KRTAP10-2 (11738614_at) / RFU ARHGAP8 /// PRR5-ARHGAP8 (11727945_x_at) / Fold change /veh ARHGAP8 /// PRR5-ARHGAP8 (11727945_x_at) / RFU KRTAP5-7 /// NADSYN1 (11734609_at) / Fold change /veh KRTAP5-7 /// NADSYN1 (11734609_at) / RFU RASL12 (11751679_a_at) / Fold change /veh RASL12 (11751679_a_at) / RFU CDKN2B (11736163_a_at) / Fold change /veh CDKN2B (11736163_a_at) / RFU PRF1 (11729649_at) / Fold change /veh PRF1 (11729649_at) / RFU, ZNF638 /// ZNF638-IT1 / Fold change vs veh, ZNF638 /// ZNF638-IT1 / RFU, PANK3 / Fold change vs veh, PANK3 / RFU, SH3YL1 / Fold change vs veh, SH3YL1 / RFU, ZEB2 / Fold change vs veh, ZEB2 / RFU, NRIP1 / Fold change vs veh, NRIP1 / RFU, PTTG1IP / Fold change vs veh, PTTG1IP / RFU, CAPN2 / Fold change vs veh, CAPN2 / RFU, MED14 / Fold change vs veh, MED14 / RFU, SNORA58 / Fold change vs veh, SNORA58 / RFU, C1orf63 / Fold change vs veh, C1orf63 / RFU, LRRFIP1 / Fold change vs veh, LRRFIP1 / RFU, NDUFAF7 / Fold change vs veh, NDUFAF7 / RFU, SLC12A2 / Fold change vs veh, SLC12A2 / RFU, IBTK / Fold change vs veh, IBTK / RFU, ESF1 / Fold change vs veh, ESF1 / Fold change vs veh, TMEM50B / RFU, TAOK1 / Fold change vs veh, TAOK1 / RFU, ACBD3 / Fold change vs veh, ACBD3 / RFU, TMA16 / Fold change vs veh, TMA16 / RFU, RWDD3 / Fold change vs veh, RWDD3 / RFU, BCAT1 / Fold change vs veh, BCAT1 / RFU, EDEM3 / Fold change vs veh, EDEM3 / RFU, TMEM33 / Fold change vs veh, TMEM33 / RFU, WDR75 / Fold change vs veh, WDR75 / RFU, AHCTF1 / Fold change vs veh, AHCTF1 / RFU, TFRC / Fold change vs veh, TFRC / RFU, ZDHHC17 / Fold change vs veh, ZDHHC17 / RFU, NOM1 / Fold change vs veh, NOM1 / RFU, ARL8B / Fold change vs veh, ARL8B / RFU, ZBTB11 / Fold change vs veh, ZBTB11 / RFU, TAMM41 / Fold change vs veh, TAMM41 / RFU, KIAA1704 /// LOC100996395 / Fold change vs veh, KIAA1704 /// LOC100996395 / RFU, ING1 / Fold change vs veh, ING1 / RFU, TRMT61B / Fold change vs veh, TRMT61B / RFU, FUBP3 / Fold change vs veh, FUBP3 / RFU, TP53 / Fold change vs veh, TP53 / RFU, TNKS2 / Fold change vs veh, TNKS2 / RFU, ZFP14 / Fold change vs veh, ZFP14 / RFU, ACTR2 / Fold change vs veh, ACTR2 / RFU, PPP3R1 / Fold change vs veh, PPP3R1 / RFU, PIK3R1 / Fold change vs veh, PIK3R1 / RFU, HNRNPA1 / Fold change vs veh, HNRNPA1 / RFU, RNF170 / Fold change vs veh, RNF170 / RFU, ZNF28 / Fold change vs veh, ZNF28 / RFU, RNGTT / Fold change vs veh, RNGTT / RFU, OGT / Fold change vs veh, OGT / RFU, BRD1 / Fold change vs veh, BRD1 / RFU, MARS / Fold change vs veh, MARS / RFU, ZNF655 / Fold change vs veh, ZNF655 / RFU, FAHD1 / Fold change vs veh, FAHD1 / RFU, BDP1 / Fold change vs veh, BDP1 / RFU, LRRCC1 / Fold change vs veh, LRRCC1 / RFU, ARID1A / Fold change vs veh, ARID1A / RFU, ZNF146 / Fold change vs veh, ZNF146 / RFU, ZNF330 / Fold change vs veh, ZNF330 / RFU, GPN3 / Fold change vs veh, GPN3 / RFU, C9orf123 / Fold change vs veh, C9orf123 / RFU, N4BP2L2 / Fold change vs veh, N4BP2L2 / RFU, ARFIP1 / Fold change vs veh, ARFIP1 / RFU, FAM179B / Fold change vs veh, FAM179B / RFU, BCL10 / Fold change vs veh, BCL10 / RFU, UHRF1BP1L / Fold change vs veh, UHRF1BP1L / RFU, BET1 / Fold change vs veh, BET1 / RFU, CNOT2 / Fold change vs veh, CNOT2 / RFU, ZNF268 / Fold change vs veh, ZNF268 / Fold change vs veh, ZNF507 / RFU, DGCR2 / Fold change vs veh, DGCR2 / RFU, WDSUB1 / Fold change vs veh, WDSUB1 / Fold change vs veh, HSP90B1 /// MIR3652 / RFU, ADSS / Fold change vs veh, ADSS / RFU, GK / Fold change vs veh, GK / RFU, ZNF148 / Fold change vs veh, ZNF148 / RFU, TAF9 / Fold change vs veh, TAF9 / RFU, SLC1A5 / Fold change vs veh, SLC1A5 / RFU, SLMO2 / Fold change vs veh, SLMO2 / RFU, ABCC4 / Fold change vs veh, ABCC4 / RFU, LOC101060439 /// RAP1B / Fold change vs veh, LOC101060439 /// RAP1B / RFU, RFX7 / Fold change vs veh, RFX7 / RFU, GTPBP10 / Fold change vs veh, GTPBP10 / RFU, CNEP1R1 / Fold change vs veh, CNEP1R1 / RFU, BIVM-ERCC5 /// ERCC5 / Fold change vs veh, BIVM-ERCC5 /// ERCC5 / RFU, ILF3 / Fold change vs veh, ILF3 / RFU 11762660_at / Fold change /veh 11762660_at / RFU VCAN (11757783_s_at) / Fold change /veh VCAN (11757783_s_at) / RFU DDX43 (11728927_at) / Fold change /veh DDX43 (11728927_at) / RFU KRT8 (11758188_x_at) / Fold change /veh KRT8 (11758188_x_at) / RFU NKD1 (11759106_at) / Fold change /veh NKD1 (11759106_at) / RFU SRD5A1 (11742802_a_at) / Fold change /veh SRD5A1 (11742802_a_at) / RFU TPSAB1 /// TPSB2 (11721975_s_at) / Fold change /veh TPSAB1 /// TPSB2 (11721975_s_at) / RFU GSTM3 (11746129_a_at) / Fold change /veh GSTM3 (11746129_a_at) / RFU IL23R (11737362_x_at) / Fold change /veh IL23R (11737362_x_at) / RFU TMEM51 (11727254_a_at) / Fold change /veh TMEM51 (11727254_a_at) / RFU PIWIL2 (11732686_x_at) / Fold change /veh PIWIL2 (11732686_x_at) / RFU ORM1 (11744905_x_at) / Fold change /veh ORM1 (11744905_x_at) / RFU CCDC152 (11743942_at) / Fold change /veh CCDC152 (11743942_at) / RFU ECM1 (11717891_a_at) / Fold change /veh ECM1 (11717891_a_at) / RFU IL23R (11748794_a_at) / Fold change /veh IL23R (11748794_a_at) / RFU TNFAIP8L3 (11732012_x_at) / Fold change /veh TNFAIP8L3 (11732012_x_at) / RFU MBOAT4 (11741988_at) / Fold change /veh MBOAT4 (11741988_at) / RFU 11764193_at / Fold change /veh 11764193_at / RFU TMEM53 (11763286_at) / Fold change /veh TMEM53 (11763286_at) / RFU MAGEB2 (11727129_at) / Fold change /veh MAGEB2 (11727129_at) / RFU TMEM200A (11744735_a_at) / Fold change /veh TMEM200A (11744735_a_at) / RFU CCDC152 (11751479_a_at) / Fold change /veh CCDC152 (11751479_a_at) / RFU FAM211A (11726209_a_at) / Fold change /veh FAM211A (11726209_a_at) / RFU RGS16 (11746705_a_at) / Fold change /veh RGS16 (11746705_a_at) / RFU VCAN (11755009_s_at) / Fold change /veh VCAN (11755009_s_at) / RFU RHOB (11743442_s_at) / Fold change /veh RHOB (11743442_s_at) / RFU RGS16 (11720943_a_at) / Fold change /veh RGS16 (11720943_a_at) / RFU RGS16 (11720944_at) / Fold change /veh RGS16 (11720944_at) / RFU, VPS4B / Fold change vs veh, VPS4B / RFU, CREB1 / Fold change vs veh, CREB1 / RFU, DNAJC13 / Fold change vs veh, DNAJC13 / RFU, GNAQ / Fold change vs veh, GNAQ / RFU, CDK5R1 / Fold change vs veh, CDK5R1 / RFU, ZRANB3 / Fold change vs veh, ZRANB3 / RFU, CUL4A / Fold change vs veh, CUL4A / RFU, CCNY / Fold change vs veh, CCNY / RFU, UFL1 / Fold change vs veh, UFL1 / RFU, COG3 / Fold change vs veh, COG3 / RFU, DIAPH2 / Fold change vs veh, DIAPH2 / RFU, SKA2 / Fold change vs veh, SKA2 / RFU, AFF3 / Fold change vs veh, AFF3 / RFU, LMF1 / Fold change vs veh, LMF1 / RFU, IPO11 / Fold change vs veh, IPO11 / RFU, DFFB / Fold change vs veh, DFFB / RFU, FOXP1 / Fold change vs veh, FOXP1 / RFU, CARD8 / Fold change vs veh, CARD8 / RFU, STRN3 / Fold change vs veh, STRN3 / RFU, ADK / Fold change vs veh, ADK / RFU, RASSF2 / Fold change vs veh, RASSF2 / RFU, WIPF1 / Fold change vs veh, WIPF1 / RFU, LARP1B / Fold change vs veh, LARP1B / RFU, RASA1 / Fold change vs veh, RASA1 / RFU, RB1 / Fold change vs veh, RB1 / RFU, PPFIA1 / Fold change vs veh, PPFIA1 / RFU, MAT2A / Fold change vs veh, MAT2A / RFU, CCT5 / Fold change vs veh, CCT5 / RFU, WDR92 / Fold change vs veh, WDR92 / RFU, CUX1 / Fold change vs veh, CUX1 / RFU, TTC7A / Fold change vs veh, TTC7A / RFU, TMEM135 / Fold change vs veh, TMEM135 / RFU, DEPTOR / Fold change vs veh, DEPTOR / RFU, CPM / Fold change vs veh, CPM / RFU, DNAJB6 / Fold change vs veh, DNAJB6 / RFU, CACNA2D3 / Fold change vs veh, CACNA2D3 / RFU, DTX4 / Fold change vs veh, DTX4 / RFU, TFCP2 / Fold change vs veh, TFCP2 / RFU, GMCL1 /// GMCL1P1 / Fold change vs veh, GMCL1 /// GMCL1P1 / RFU, AEBP2 / Fold change vs veh, AEBP2 / RFU, SNHG1 /// SNORD22 /// SNORD25 /// SNORD26 /// SNORD27 /// SNORD28 /// SNORD29 /// SNORD31 / Fold change vs veh, SNHG1 /// SNORD22 /// SNORD25 /// SNORD26 /// SNORD27 /// SNORD28 /// SNORD29 /// SNORD31 / Fold change (Aza/veh), C12orf56 (ProbeSet 11735607_a_at) / Fold change (ACY-1035/veh), C12orf56 (ProbeSet 11735607_a_at) / Fold change (Aza/veh), FGFR1OP (ProbeSet 11751329_s_at) / Fold change (ACY-1035/veh), FGFR1OP (ProbeSet 11751329_s_at) / Fold change (Aza/veh), VPS36 (ProbeSet 11739960_a_at) / Fold change (ACY-1035/veh), VPS36 (ProbeSet 11739960_a_at) / RFU SYPL1 (11715823_x_at) / Fold change /veh SYPL1 (11715823_x_at) / RFU IGFBP7 (11715501_s_at) / Fold change /veh IGFBP7 (11715501_s_at) / RFU REEP3 (11722064_at) / Fold change /veh REEP3 (11722064_at) / RFU IGLL1 (11728026_x_at) / Fold change /veh IGLL1 (11728026_x_at): dose or concentration left out as unconfirmed
Conditions: ProbeSet 11741311_a_at; LIST B

SMILES: Nc1ccc(-c2cccs2)cc1NC(=O)c1ccc2c(c1)cc(C1CC1)n2CCN1CCOCC1 [ACY-1035]
- RFU, ZNF655: 32.95 RFU
